Experimental data: ChEMBL document CHEMBL1201862, “PubChem BioAssay data set” (2004)
Activity calls are given as the source filed them.

Key:
Major prion protein = Major prion protein (Homo sapiens, UniProt P04156); assay type: functional, cell-based
[1] = biological target: T1, Rac GTPase-activating protein 1 (Homo sapiens, UniProt Q9H0H5); test: MgcRacGAP GTPase-activating activity inhibitors, confirmation, biochemical, ADP Hunter fluorescence, primary and confirmatory (AID 624330); assay type: functional
T1 sequence (Q9H0H5 whole entry): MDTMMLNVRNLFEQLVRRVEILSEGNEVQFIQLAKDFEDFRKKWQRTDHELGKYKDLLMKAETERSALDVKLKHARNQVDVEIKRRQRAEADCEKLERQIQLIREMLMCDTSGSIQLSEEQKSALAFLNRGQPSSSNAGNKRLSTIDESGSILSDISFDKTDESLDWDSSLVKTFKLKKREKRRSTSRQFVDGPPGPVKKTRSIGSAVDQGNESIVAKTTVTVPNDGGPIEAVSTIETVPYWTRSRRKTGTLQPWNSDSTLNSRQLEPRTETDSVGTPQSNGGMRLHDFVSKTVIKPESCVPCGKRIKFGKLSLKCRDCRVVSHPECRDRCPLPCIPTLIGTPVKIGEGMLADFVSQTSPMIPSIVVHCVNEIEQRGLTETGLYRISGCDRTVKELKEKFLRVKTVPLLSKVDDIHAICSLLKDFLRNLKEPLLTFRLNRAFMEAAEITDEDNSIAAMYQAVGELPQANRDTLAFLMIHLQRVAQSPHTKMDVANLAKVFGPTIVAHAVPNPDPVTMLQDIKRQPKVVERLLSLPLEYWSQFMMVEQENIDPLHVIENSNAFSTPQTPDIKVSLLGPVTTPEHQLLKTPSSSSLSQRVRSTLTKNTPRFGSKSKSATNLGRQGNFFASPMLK

[2] = non-specific cell cytotoxicity, dose response, cytotoxicity control for PAX8 inhibitor project, plate reader, dry powder samples (AID 743021); assay type: functional, cell-based
Paired box protein Pax-8 = Paired box protein Pax-8 (Homo sapiens, UniProt Q06710); test: inhibitors of PAX8-driven TPO luciferase reporter, dose response, RMG-I cells, cherry-pick (AID 687027); assay type: functional, cell-based;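 also: luciferase reporter driven by Pax8 target thyroperoxidase promoter measured by SteadyGlo luminescence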
[3] = biological target: NAD-dependent protein deacylase sirtuin-5, mitochondrial (Homo sapiens, UniProt Q9NXA8); test: SIRT5 deacylase inhibitors, dose response, biochemical, fluorescence imaging, cherry-pick, set 6 (AID 720597)
[4] = biological target: Arf-GAP with SH3 domain, ANK repeat and PH domain-containing protein 1 (Homo sapiens, UniProt Q9ULH1); assay type: functional;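 also: biochemical fluorescence polarization dose–response screen measuring inhibition of ASAP1; ASAP1 GAP domain stimulating GTP hydrolysis by truncated human ARF1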
[5] = inhibitors of firefly luciferase expression or activity, dose response, H4 neuroglioma cells, luminescence (AID 1990); assay type: functional, cell-based
[6] = Luminescence Cell-Based Dose Response HTS to Identify Inhibitors of 5'UTR Stem-Loop Driven Prion Protein mRNA Translation in H4 Neuroglioblastoma Cells. [Related pubchem assays: 1827 (Project Summary), 1813 (Primary HTS)]; assay type: functional
[7] = inhibitors of SNCA 5'UTR-driven reporter translation, confirmation, H4 neuroglioma cells, luminescence (AID 1988); assay type: functional, cell-based
[8] = biological target: Photoreceptor-specific nuclear receptor (Homo sapiens, UniProt Q9Y5X4); assay type: functional, cell-based;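 also: CHO-S cells with Gal4-NCOR and VP16-NR2E3 two-hybrid luciferase reporter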
[9] = miR-122 activators in hepatoma reporter cells, dose response, cell-based, Huh7 psiCHECK-miR122, Renilla luciferase, cherry-picked (AID 651956); assay type: functional;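 also: huh7 hepatoma cells stably carrying a psiCHECK-2 miR-122 sensor plasmid; renilla luciferase signal reporting endogenous miR-122 activity after 48 h compound exposure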
[10] = biological target: SWI/SNF-related matrix-associated actin-dependent regulator of chromatin subfamily A member 2 (Homo sapiens, UniProt P51531); test: Luminescence-based cell-based high throughput dose response assay to identify activators of the function of SWI/SNF related, matrix associated, actin dependent regulator of chromatin, subfamily a, member 2 (SMARCA2, BRM).; assay type: functional
[11] = Counterscreen for activators of the function of SWI/SNF related, matrix associated, actin dependent regulator of chromatin, subfamily a, member 2 (SMARCA2, BRM): Luminescence-based cell-based high throughput dose response assay to identify non-selective compounds using the VP16 reporter assay.; assay type: functional
[12] = biological target: T2, Zinc finger protein mex-5 (Caenorhabditis elegans, UniProt Q9XUB2); test: MEX-5/TCR-2 RNA interaction inhibitors, dose response, biochemical, C. elegans, fluorescence polarization (AID 1960)
T2 sequence (Q9XUB2 whole entry): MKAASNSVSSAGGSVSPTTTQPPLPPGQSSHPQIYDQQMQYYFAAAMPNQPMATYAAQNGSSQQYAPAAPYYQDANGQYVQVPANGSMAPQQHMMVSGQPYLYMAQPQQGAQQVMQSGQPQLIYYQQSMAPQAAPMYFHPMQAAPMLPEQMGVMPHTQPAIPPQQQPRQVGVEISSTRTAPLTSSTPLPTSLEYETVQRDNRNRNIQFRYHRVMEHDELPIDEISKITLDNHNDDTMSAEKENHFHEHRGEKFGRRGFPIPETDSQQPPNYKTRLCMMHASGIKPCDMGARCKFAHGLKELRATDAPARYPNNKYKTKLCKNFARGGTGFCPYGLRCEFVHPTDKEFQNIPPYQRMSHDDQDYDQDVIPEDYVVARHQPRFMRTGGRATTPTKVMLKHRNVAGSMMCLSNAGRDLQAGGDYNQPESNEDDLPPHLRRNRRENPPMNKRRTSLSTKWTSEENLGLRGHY

[13] = biological target: T3, RNA-binding protein pos-1 (Caenorhabditis elegans, UniProt G5EF15); test: inhibitors of POS-1/mex-3 RNA binding, dose response, biochemical, fluorescence polarization (AID 1964);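 also: purified POS-1 fused to maltose binding protein made in E. coli; potency of compounds blocking POS-1 binding to fluorescent RNA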
T3 sequence (G5EF15 whole entry): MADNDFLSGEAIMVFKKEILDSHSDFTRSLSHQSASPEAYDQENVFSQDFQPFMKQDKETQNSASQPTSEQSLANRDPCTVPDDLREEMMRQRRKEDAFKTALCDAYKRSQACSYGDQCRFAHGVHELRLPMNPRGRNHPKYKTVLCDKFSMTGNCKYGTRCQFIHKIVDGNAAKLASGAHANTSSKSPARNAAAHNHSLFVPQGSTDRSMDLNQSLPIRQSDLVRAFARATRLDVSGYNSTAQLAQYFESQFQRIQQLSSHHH

[14] = HEK293 cell cytotoxicity, dose response, cytotoxicity control, cherry-picks, set 5 (AID 1053117); assay type: functional, cell-based
[15] = ZM109 Env clade C HIV-1 fusion inhibitors, dose response, HeLa effector, CEM target cells, luciferase, cherry-pick (AID 652058); assay type: functional, cell-based
[16] = off-target signal loss in HeLa-CEM21 co-culture – HeLa F-luc CTL cells, cherry-picked, counter-screen for HIV-1 Env fusion inhibitor project, dose response (AID 652040); assay type: functional, cell-based;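 also: potency for signal decrease marking cytotoxic or nonspecific inhibition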
[17] = inhibitors of clade B AD8 Env fusion, dose response, cell-based, cherry-pick (AID 652062); assay type: functional;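 also: luciferase signal from cell-cell fusion driven by HIV-1 clade B AD8 Env; potency is for inhibitors of fusion seen as a drop in luminescence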
[18] = CEM21 lymphoblast cell cytotoxicity, dose response, cytotoxicity control for viral fusion inhibitor project, CellTiter-Glo luminescence, cherry-picked (AID 652042); assay type: functional, cell-based;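 also: potency for signal decrease meaning cytotoxicity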
[19] = inhibitors of HIV Env-driven cell fusion, dose response, cherry-pick (AID 652057); assay type: functional, cell-based
HeLa = test: HeLa cell cytotoxicity, dose response, cytotoxicity control, ATP luminescence, cherry-pick samples (AID 687004); assay type: functional, cell-based; details: Homo sapiens

**Q.** For `CC(C)c1nc(SCC(=O)Nc2ccc(N(C)C)cc2)c2ccccc2n1`, which IC50 (Major prion protein) is on record?
**A.** 2.94 µM (active)

**Q.** And the IC50 [1]?
**A.** 196 µM (active)

**Q.** What about the IC50 (cells) of the same compound?
**A.** 58.2 µM (inactive)

**Q.** With `CC1(C)CC(=O)C=C(C#CC2(O)CCCCC2)C1` as the compound, how does the AC50 [2] read?
**A.** 64.8 µM (active)

**Q.** What about the AC50 (Paired box protein Pax-8) of the same compound?
**A.** 4.34 µM (active)

**Q.** For `CN(C)C(=O)c1cccc(-c2ccccc2[C@H]2[C@@H](C#N)N(C(=O)C3CC3)[C@@H]2CO)c1`, which AC50 [3] is on record?
**A.** > 32 µM (inactive)

**Q.** With `NS(=O)(=O)c1ccc(CCNc2nc3c(-c4cccc(F)c4)nnn3c3ccccc23)cc1` as the compound, how does the IC50 [4] read?
**A.** 11.2 µM (inactive)

**Q.** And the EC50 [5]?
**A.** > 120 µM (not active)

**Q.** What about the EC50 [6] of the same compound?
**A.** > 120 µM (not active)

**Q.** And the EC50 [7]?
**A.** > 120 µM (not active)

**Q.** For `C=CC[n+]1c(-c2ccc(Cl)cc2Cl)csc1Nc1ccc(NC(C)=O)cc1`, which IC50 [8] is on record?
**A.** 2.75 µM (active)

**Q.** Which AC50 [9] does the source give for `COc1ccc(S(=O)(=O)N(C)C[C@@H]2Oc3cc(-c4cccc(F)c4)ccc3S(=O)(=O)N([C@@H](C)CO)C[C@H]2C)cc1` here?
**A.** 3.72 µM (active)

**Q.** With `CCCCNC(=O)c1cc2c(=O)n3cccc(C)c3nc2n(Cc2ccncc2)c1=N` as the compound, how does the EC50 [10] read?
**A.** > 91.1 µM (inactive)

**Q.** What about the EC50 [11] of the same compound?
**A.** > 91.1 µM (inactive)

**Q.** What about the EC50 [12] of the same compound?
**A.** 39.6 µM (inconclusive)

**Q.** And the EC50 [13]?
**A.** 24.3 µM (inconclusive)

**Q.** With `C[C@H](CO)N1C[C@H](C)[C@H](CN(C)C(=O)c2cccc(F)c2)Oc2ncc(-c3ccccc3)cc2C1=O` as the compound, how does the AC50 [14] read?
**A.** > 52 µM (inactive)

**Q.** Which results are given for `COC(=O)N1[C@H](C)C=C[C@]1(Cc1ccccc1)C(=O)NCCCNc1ncc(C(F)(F)F)cc1Cl`?
**A.** AC50 [15]: 6.11 µM (active); AC50 [16]: 6.96 µM (active); AC50 [17]: 11.9 µM (active); AC50 [18]: 48.6 µM (active); AC50 [19]: 3.42 µM (active)

**Q.** For `Cc1ccc2nc(C)c3c(c2c1)OC(C(C)(Cl)Br)C3` (stereo not drawn), which AC50 (HeLa) is on record?
**A.** > 52 µM (inactive)
